Experimental findings from US10160755B2 (Plexxikon Inc., priority 2015, dated 2018) are described below.

One test has as its target T1, FLT3-D835Y (Homo sapiens, UniProt P36888, D835Y).
T1 construct: purchased Invitrogen PV3967
T1 sequence (P36888 27-993 D835Y): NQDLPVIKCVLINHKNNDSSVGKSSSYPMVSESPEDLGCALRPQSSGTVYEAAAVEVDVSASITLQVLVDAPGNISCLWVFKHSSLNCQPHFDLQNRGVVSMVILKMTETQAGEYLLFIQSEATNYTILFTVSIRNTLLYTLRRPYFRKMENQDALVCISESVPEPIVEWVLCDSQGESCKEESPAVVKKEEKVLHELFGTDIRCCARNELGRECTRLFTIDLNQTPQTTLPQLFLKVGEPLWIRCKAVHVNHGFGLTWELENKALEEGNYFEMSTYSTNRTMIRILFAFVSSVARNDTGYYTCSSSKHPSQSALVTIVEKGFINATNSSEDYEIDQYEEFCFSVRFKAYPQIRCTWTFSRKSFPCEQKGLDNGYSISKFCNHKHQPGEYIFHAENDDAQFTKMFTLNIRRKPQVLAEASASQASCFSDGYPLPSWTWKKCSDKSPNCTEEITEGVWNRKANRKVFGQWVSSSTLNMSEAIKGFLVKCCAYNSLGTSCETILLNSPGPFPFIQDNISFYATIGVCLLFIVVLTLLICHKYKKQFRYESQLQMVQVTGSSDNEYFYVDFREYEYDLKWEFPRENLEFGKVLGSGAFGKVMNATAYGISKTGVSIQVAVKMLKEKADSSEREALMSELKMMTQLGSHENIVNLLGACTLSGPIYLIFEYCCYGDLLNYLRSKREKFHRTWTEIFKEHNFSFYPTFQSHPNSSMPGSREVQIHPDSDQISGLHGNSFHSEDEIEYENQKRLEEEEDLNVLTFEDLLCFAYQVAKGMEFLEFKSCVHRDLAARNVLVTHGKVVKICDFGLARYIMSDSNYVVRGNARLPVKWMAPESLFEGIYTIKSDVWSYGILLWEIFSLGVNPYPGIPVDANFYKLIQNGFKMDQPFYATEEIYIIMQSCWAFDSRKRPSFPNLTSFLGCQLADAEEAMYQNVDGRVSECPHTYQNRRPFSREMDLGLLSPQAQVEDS
The experiment in a line: FLT3-D835Y biochemical kinase assay (AlphaScreen). The essentials:
(§1)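 Compounds were tested against recombinant enzyme using AlphaScreen detection of tyrosine-phosphorylated biotin-poly(Glu4-Tyr) (30 nM final). The ATP concentration differed by construct: 10 μM for D835Y, 100 μM for ITD.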
In general terms: Alpha assays give light when donor and acceptor beads are brought close together.

The target of a further test is c-Kit (Homo sapiens, UniProt P10721). The experiment in a line: c-Kit biochemical assay (per US 2007/0032519). As to the method: The following Table 2 provides data indicating FLT3 ITD, FLT3 D835Y, and KIT biochemical activity, and BaF3 FLT3 ITD/F69L cellular inhibitory activity for exemplary compounds described in this disclosure. In the table below, activity is provided as follows: +++=0.0001<IC50<1 μM; ++=1 μM<IC50<10 μM, +=10 μM<IC50<200 μM. Assays for the biochemical activity of c-Kit and FMS were conducted according to those assays described in US Patent Application Publication number US 2007/0032519, the disclosure of which is hereby incorporated by reference in its entirety.

A further test has as its target T2, FLT3-ITD (Homo sapiens, UniProt P36888).
T2 construct: FLT3-ITD; Invitrogen #PV6190
T2 sequence (P36888 1-993): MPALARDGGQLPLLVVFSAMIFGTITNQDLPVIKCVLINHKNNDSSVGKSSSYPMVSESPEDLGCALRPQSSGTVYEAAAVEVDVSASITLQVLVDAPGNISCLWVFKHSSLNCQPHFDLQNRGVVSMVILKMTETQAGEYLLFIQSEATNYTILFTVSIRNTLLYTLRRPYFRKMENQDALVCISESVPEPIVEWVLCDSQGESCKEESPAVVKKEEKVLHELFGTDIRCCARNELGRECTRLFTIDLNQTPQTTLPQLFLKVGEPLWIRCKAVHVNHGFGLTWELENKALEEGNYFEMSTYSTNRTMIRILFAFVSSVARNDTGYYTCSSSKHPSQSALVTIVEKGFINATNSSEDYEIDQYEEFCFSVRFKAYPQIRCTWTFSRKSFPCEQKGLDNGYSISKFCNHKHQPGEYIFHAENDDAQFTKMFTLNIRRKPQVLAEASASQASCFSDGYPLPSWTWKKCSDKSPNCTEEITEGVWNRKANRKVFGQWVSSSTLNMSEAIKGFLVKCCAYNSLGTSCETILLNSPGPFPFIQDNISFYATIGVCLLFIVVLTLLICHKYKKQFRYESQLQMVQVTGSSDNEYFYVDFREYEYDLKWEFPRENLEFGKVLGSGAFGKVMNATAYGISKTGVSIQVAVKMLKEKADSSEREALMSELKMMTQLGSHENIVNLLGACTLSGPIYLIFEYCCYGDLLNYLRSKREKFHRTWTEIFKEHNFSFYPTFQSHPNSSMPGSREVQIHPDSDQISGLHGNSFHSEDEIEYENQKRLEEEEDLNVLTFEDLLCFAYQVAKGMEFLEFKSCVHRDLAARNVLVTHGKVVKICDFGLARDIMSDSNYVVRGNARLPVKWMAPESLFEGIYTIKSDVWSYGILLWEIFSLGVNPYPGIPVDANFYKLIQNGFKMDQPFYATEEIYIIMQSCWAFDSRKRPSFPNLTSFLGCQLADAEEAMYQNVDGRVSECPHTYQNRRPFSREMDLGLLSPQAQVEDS
In words: FLT3-ITD biochemical kinase assay (AlphaScreen). The essentials:
as §1

Chain of c-Kit (P10721 26-976): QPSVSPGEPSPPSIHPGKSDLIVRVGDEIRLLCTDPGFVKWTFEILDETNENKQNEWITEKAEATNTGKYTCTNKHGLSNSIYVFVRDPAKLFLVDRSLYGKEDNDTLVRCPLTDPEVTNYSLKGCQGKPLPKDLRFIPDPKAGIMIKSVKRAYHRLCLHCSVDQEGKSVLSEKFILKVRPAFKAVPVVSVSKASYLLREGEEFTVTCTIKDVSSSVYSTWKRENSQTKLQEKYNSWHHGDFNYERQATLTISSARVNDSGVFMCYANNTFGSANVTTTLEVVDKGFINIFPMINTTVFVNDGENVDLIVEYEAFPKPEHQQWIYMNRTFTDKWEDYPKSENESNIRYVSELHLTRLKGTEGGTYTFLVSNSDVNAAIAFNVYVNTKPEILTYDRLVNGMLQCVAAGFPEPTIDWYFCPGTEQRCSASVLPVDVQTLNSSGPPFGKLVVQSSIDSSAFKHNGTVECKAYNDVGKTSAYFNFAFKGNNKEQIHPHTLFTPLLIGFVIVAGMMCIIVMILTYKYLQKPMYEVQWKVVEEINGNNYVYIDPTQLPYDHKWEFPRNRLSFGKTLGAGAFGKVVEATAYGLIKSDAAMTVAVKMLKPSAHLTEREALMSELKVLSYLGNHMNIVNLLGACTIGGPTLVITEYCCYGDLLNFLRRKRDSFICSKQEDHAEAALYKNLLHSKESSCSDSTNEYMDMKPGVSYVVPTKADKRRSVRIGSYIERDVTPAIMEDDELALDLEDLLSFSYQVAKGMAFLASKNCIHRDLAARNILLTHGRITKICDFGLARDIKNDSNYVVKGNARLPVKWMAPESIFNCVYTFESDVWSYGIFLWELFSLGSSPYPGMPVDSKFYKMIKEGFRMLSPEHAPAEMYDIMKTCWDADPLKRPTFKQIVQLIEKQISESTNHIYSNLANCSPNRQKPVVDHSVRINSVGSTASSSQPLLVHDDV

As to `COc1cc(-c2cnc3[nH]cc(-c4ccc5ncn(CC(F)(F)F)c5c4)c3n2)ccn1` [P-098, 2-(2-methoxy-4-pyridyl)-7-[3-(2,2,2-trifluoroethyl)benzimidazol-5-yl]-5H-pyrrolo[2,3-b]pyrazine], the IC50 (as a rule, the midpoint of a concentration-inhibition curve) at FLT3-D835Y lay within 0.0001 to 1 µM; against c-Kit, 10 to 200 µM; on FLT3-ITD, 0.0001 to 1 µM.

Turning to `O=S(=O)(C1CC1)N1CCC=C(c2cnc3[nH]cc(-c4ccc5[nH]cnc5c4)c3c2)C1` [P-032, 3-(1H-benzimidazol-5-yl)-5-(1-cyclopropylsulfonyl-3,6-dihydro-2H-pyridin-5-yl)-1H-pyrrolo[2,3-b]pyridine], the IC50 on FLT3-D835Y was in the range of 1 to 10 µM; at c-Kit, 10 to 200 µM; against FLT3-ITD, 0.0001 to 1 µM.

For the molecule `COc1cnc2[nH]cc(-c3ccc4scnc4c3)c2c1` [P-051, 5-(5-methoxy-1H-pyrrolo[2,3-b]pyridin-3-yl)-1,3-benzothiazole], the IC50 against FLT3-D835Y fell in the range of 0.0001 to 1 µM; against c-Kit, 10 to 200 µM; at FLT3-ITD, 0.0001 to 1 µM.

In the case of `COc1cnc2[nH]cc(-c3ccc4occc4c3)c2c1` [P-036, 3-(benzofuran-5-yl)-5-methoxy-1H-pyrrolo[2,3-b]pyridine], the IC50 against FLT3-D835Y was 10 to 200 µM; against c-Kit it was 10 to 200 µM; on FLT3-ITD, 1 to 10 µM.

Turning to `Cn1cnc2ccc(-c3c[nH]c4ncc(-c5cccc(C(=O)NC6CC6)c5)cc34)cc21` [P-090, N-cyclopropyl-3-[3-(3-methylbenzimidazol-5-yl)-1H-pyrrolo[2,3-b]pyridin-5-yl]benzamide], the IC50 against FLT3-D835Y was in the range of 0.0001 to 1 µM; against c-Kit it was 10 to 200 µM; against FLT3-ITD it was 0.0001 to 1 µM.

As for `CNS(=O)(=O)c1cccc(-c2cnc3[nH]cc(-c4ccc5ncn(C)c5c4)c3n2)c1` [P-057, N-methyl-3-[7-(3-methylbenzimidazol-5-yl)-5H-pyrrolo[2,3-b]pyrazin-2-yl]benzenesulfonamide], the values for the IC50 at FLT3-D835Y, at c-Kit and against FLT3-ITD were 0.0001 to 1 µM, 1 to 10 µM and 0.0001 to 1 µM, respectively.

With `CS(=O)(=O)Nc1cccc(-c2cnc3[nH]cc(-c4ccc5c(c4)NCCO5)c3n2)c1` [P-085, N-[3-[7-(3,4-dihydro-2H-1,4-benzoxazin-6-yl)-5H-pyrrolo[2,3-b]pyrazin-2-yl]phenyl]methanesulfonamide], the IC50 on FLT3-D835Y was 0.0001 to 1 µM; at c-Kit, 1 to 10 µM; against FLT3-ITD it was 0.0001 to 1 µM.

Regarding `O=C(C1CC1)N1CC=C(c2cnc3[nH]cc(-c4ccc5ncn(CC(F)(F)F)c5c4)c3n2)C1` [P-125, cyclopropyl-[3-[7-[3-(2,2,2-trifluoroethyl)benzimidazol-5-yl]-5H-pyrrolo[2,3-b]pyrazin-2-yl]-2,5-dihydropyrrol-1-yl]methanone], the values for the IC50 at FLT3-D835Y, against c-Kit and on FLT3-ITD were 0.0001 to 1 µM, 1 to 10 µM and 0.0001 to 1 µM, respectively.

On to `c1cnc2[nH]cc(-c3ccc4[nH]ncc4c3)c2c1` [P-001, 3-(1H-indazol-5-yl)-1H-pyrrolo[2,3-b]pyridine], for which the IC50 against FLT3-D835Y was 1 to 10 µM; against c-Kit it was 0.0001 to 1 µM; on FLT3-ITD, 1 to 10 µM.

Regarding `Clc1cnc2[nH]cc(-c3ccc4nc[nH]c4c3)c2c1` [P-035, 3-(3H-benzimidazol-5-yl)-5-chloro-1H-pyrrolo[2,3-b]pyridine], the IC50 at FLT3-D835Y was in the range of 0.0001 to 1 µM; against c-Kit, 1 to 10 µM; against FLT3-ITD it was 0.0001 to 1 µM.

For the molecule `COc1ccc(-c2cnc3[nH]cc(-c4ccc5[nH]cnc5c4)c3c2)cn1` [P-024, 3-(1H-benzimidazol-5-yl)-5-(6-methoxy-3-pyridyl)-1H-pyrrolo[2,3-b]pyridine], the IC50 fell in the range of 0.0001 to 1 µM at FLT3-D835Y, 1 to 10 µM on c-Kit and 0.0001 to 1 µM on FLT3-ITD.

On to `CC(C)(C)n1cnc2ccc(-c3c[nH]c4ncc(C5=CCN(C(=O)C6CC6)C5)cc34)cc21` [P-134, [3-[3-(3-tert-butylbenzimidazol-5-yl)-1H-pyrrolo[2,3-b]pyridin-5-yl]-2,5-dihydropyrrol-1-yl]-cyclopropyl-methanone], for which the IC50 at FLT3-D835Y is 0.0001 to 1 µM; on c-Kit it was 10 to 200 µM; against FLT3-ITD, 0.0001 to 1 µM.

For the molecule `c1cnc2[nH]cc(-c3ccc4ncsc4c3)c2c1` [P-030, 6-(1H-pyrrolo[2,3-b]pyridin-3-yl)-1,3-benzothiazole], the results for the concentration for half-maximal inhibition (IC50) against FLT3-D835Y, against c-Kit and on FLT3-ITD were 0.0001 to 1 µM, 1 to 10 µM and 0.0001 to 1 µM, respectively.

For `CS(=O)(=O)Nc1cccc(-c2cnc3[nH]cc(-c4ccc5c(c4)OCO5)c3n2)c1` [P-058, N-[3-[7-(1,3-benzodioxol-5-yl)-5H-pyrrolo[2,3-b]pyrazin-2-yl]phenyl]methanesulfonamide], the IC50 against FLT3-D835Y fell in the range of 0.0001 to 1 µM; at c-Kit it was 10 to 200 µM; on FLT3-ITD it was 0.0001 to 1 µM.

Consider `COc1cc(-c2cnc3[nH]cc(-c4ccc5ncn(C)c5c4)c3c2)cc(OC)n1` [P-123, 5-(2,6-dimethoxy-4-pyridyl)-3-(3-methylbenzimidazol-5-yl)-1H-pyrrolo[2,3-b]pyridine], for which the IC50 on FLT3-D835Y was in the range of 0.0001 to 1 µM; on c-Kit, 10 to 200 µM; against FLT3-ITD, 0.0001 to 1 µM.

For `O=C(C1CC1)N1CC=C(c2cnc3[nH]cc(-c4ccc5ncn(C6CCCC6)c5c4)c3n2)C1` [P-126, [3-[7-(3-cyclopentylbenzimidazol-5-yl)-5H-pyrrolo[2,3-b]pyrazin-2-yl]-2,5-dihydropyrrol-1-yl]-cyclopropyl-methanone], the IC50 against FLT3-D835Y was 0.0001 to 1 µM; against c-Kit, 10 to 200 µM; against FLT3-ITD, 0.0001 to 1 µM.

With `Cn1cnc2ccc(-c3c[nH]c4ncc(Cl)cc34)cc21` [P-019, 5-chloro-3-(3-methylbenzimidazol-5-yl)-1H-pyrrolo[2,3-b]pyridine], the IC50 against FLT3-D835Y was in the range of 0.0001 to 1 µM; against c-Kit, 10 to 200 µM; at FLT3-ITD, 0.0001 to 1 µM.

In the case of `O=C(C1CC1)N1CC=C(c2cnc3[nH]cc(-c4ccc5ncn(CC(F)(F)F)c5c4)c3c2)C1` [P-133, cyclopropyl-[3-[3-[3-(2,2,2-trifluoroethyl)benzimidazol-5-yl]-1H-pyrrolo[2,3-b]pyridin-5-yl]-2,5-dihydropyrrol-1-yl]methanone], the IC50 against FLT3-D835Y was in the range of 0.0001 to 1 µM; at c-Kit it was 1 to 10 µM; against FLT3-ITD it was 0.0001 to 1 µM.

In the case of `COc1cnc2[nH]cc(-c3ccc4[nH]cnc4c3)c2c1` [P-002, 3-(1H-benzimidazol-5-yl)-5-methoxy-1H-pyrrolo[2,3-b]pyridine], the IC50 on FLT3-D835Y fell in the range of 0.0001 to 1 µM; against c-Kit, 1 to 10 µM; against FLT3-ITD, 0.0001 to 1 µM.
